Experiments:
[1] = system: peripheral tissues including heart, kidneys, spleen, pancreas, adrenals, lungs and liver; conditions: radiolabel studies; cited from earlier work
[2] = system: audiogenic-susceptible mouse; conditions: cited from earlier work
[3] = adjunctive therapy, adults; cited from earlier work
human SV2A = target: T1, human SV2A (Homo sapiens, UniProt Q7L0J3); assay: 3H-30889 intact cell binding to COS-7 cells transfected with SV2A; conditions: displacement of 3H-30889, intact transfected COS-7 cells
T1 construct: expressed in transfected cells; host or cells: COS-7 cells, transient transfection (Lipofectamine 2000), vector pDEST 12.2
Description: The human SV2A coding region was transferred from the pDONR GATEWAY cloning vector to a pDEST 12.2 Gateway expression vector. This vector has a CMV promoter driving the introduced gene, and an SV40 ori, which allows very high levels of replication in the COS-7 cell line, which contains the large T antigen. In addition, the human SV2A coding region was transferred into a pDEST 40 Gateway expression vector. This vector is very similar to the 12.2 vector above, with a CMV promoter driving expression of hSV2A, and an SV40 ori, and a Neomycin resistance gene.
Lipofectamine 2000 (Invitrogen) transfection reagent was used to transfect DNA into 90% confluent COS-7 cells. Also, the same reagent was used to transfect the hSV2A containing vector into the PC12a cell line, and selecting for antibiotic resistance. Anti-SV2 polyclonal antibody (CalBiochem) was used to test for expression in either transfected COS-7 cells, or transfected PC 12a cells, of the SV2A product. Lysates of the COS-7 cells were collected at 18 hrs after transfection on an SDS-PAGE gel, transferred to a membrane, and probed with a polyclonal antibody against SV2A, in comparison to crude rat brain membranes (FIG. 12A). Also shown are lysates from a non-transfected COS-7 cells, non-transfected PC12a cells (low in LBS), PC12bs cells (high in LBS), or PC 12a cells transfected with hSV2A (FIG. 12B). No labeling of protein bands is observed in the untransfected COS-7 control, while the transfected COS-7 cells show multiple bands, with most density in the range of 80–120 kD, perhaps due to multiple glycosylation states of the expressed protein. […]
In a binding experiment, specific binding was measured of ^3H-30889 to COS-7 cells that have either been transfected with SV2A-12.2, or as controls, a β-gal expressing vector, or cells that have not been transfected (FIG. 13). […] The cells were lysed on the plate, transferred to scintillation vials with scintillation fluid and counted for ^3H decay emission. […]

[4] = target: T2, levetiracetam binding site (LBS) (Rattus norvegicus, UniProt Q02563); set-up: from tissue; host or cells: rat brain (crude membranes; 25 µm brain slices for autoradiography); conditions: cited from earlier work
PC12 = assay: [3H]ucb 30889 binding in cell types; set-up: species or system rat
Description: (§1) To identify and characterize the LBS in situ, ^[3H]ucb 30889 was used to map the LBS within the brain and to study both its cellular and subcellular distribution. […] Binding assays with rat brain membranes and various neuronal cell lines were performed under similar conditions. […] For photolabeling, membranes were incubated with […] ^[3H]ucb 30889 for 120 min at 4° C. in the same buffer, followed by irradiation with UV-light for 30 min.
(§2) Abbreviation: nd, not detected.

peripheral tissues = assay: [3H]ucb 30889 specific binding in peripheral tissues; conditions: 150 μg of protein/assay, 1.3 nM radioligand; limit of detection Bmax 200 fmol/mg protein
Description: The limit of detection under the experimental conditions (150 μg of protein/assay and 1.3 nM of radioligand) was a Bmax of 200 fmol/mg protein.

COS-7 = assay: [3H]ucb 30889 binding in cell types; conditions: untransfected COS-7 cell line
Description: as §1, §2
In addition, a PC12 cell line subclone, PC12a, which is low in LBS, was used to establish a pool of PC12 cells expressing hSV2A under stable antibiotic selection.

[5] = target: T2, levetiracetam binding site (LBS); assay: [3H]ucb 30889 binding on crude rat brain membranes (kinetics, saturation, competition)

T1 sequence (Q7L0J3 whole entry): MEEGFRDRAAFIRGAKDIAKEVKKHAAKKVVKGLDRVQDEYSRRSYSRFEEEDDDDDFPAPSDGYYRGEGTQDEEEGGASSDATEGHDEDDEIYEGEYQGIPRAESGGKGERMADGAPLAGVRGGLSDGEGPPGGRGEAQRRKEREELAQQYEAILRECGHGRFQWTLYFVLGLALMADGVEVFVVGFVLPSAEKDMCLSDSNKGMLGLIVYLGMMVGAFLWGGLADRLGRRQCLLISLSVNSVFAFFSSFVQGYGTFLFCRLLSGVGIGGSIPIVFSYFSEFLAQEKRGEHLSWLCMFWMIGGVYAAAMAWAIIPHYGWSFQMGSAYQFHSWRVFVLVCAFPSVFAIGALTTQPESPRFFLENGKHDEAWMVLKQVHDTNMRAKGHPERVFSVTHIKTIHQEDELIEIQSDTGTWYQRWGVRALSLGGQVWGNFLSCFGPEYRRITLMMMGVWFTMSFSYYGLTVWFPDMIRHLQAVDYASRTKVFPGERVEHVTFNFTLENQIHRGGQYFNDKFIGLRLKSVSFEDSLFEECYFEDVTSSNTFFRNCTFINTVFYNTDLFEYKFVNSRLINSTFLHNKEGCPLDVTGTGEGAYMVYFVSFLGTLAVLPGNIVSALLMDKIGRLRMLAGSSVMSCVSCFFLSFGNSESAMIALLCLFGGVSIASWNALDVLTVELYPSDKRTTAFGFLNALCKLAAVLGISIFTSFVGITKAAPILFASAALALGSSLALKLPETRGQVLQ
T2 sequence (Q02563 whole entry): as the sequence (Q7L0J3 whole entry) above, with D53E, S62A, T71A, E144D, A154T, G440S, S482A, I572V, M634L counted along it

| Structure (SMILES) | specific binding [1] | suppression of seizures [2] | efficacy in controlling refractory partial seizures [3] | tolerability [3] | IC50 against SV2A expressed in COS-7 cells (rank order) (human SV2A) | affinity ([4]; rat hippocampal membranes) | binding capacity ([4]; rat hippocampal membranes) | Bmax (PC12) | Kd (PC12) | specific binding (peripheral tissues) | binding (COS-7) | Kd [5] | Ki [5] | times less affinity for the LBS than levetiracetam ([4]; rat brain membranes) |
| --- | --- | --- | --- | --- | --- | --- | --- | --- | --- | --- | --- | --- | --- | --- |
| CC[C@@H](C(N)=O)N1CCCC1=O [levetiracetam, (S)-α-ethyl-2-oxo-1-pyrrolidine acetamide] | no specific binding | unexpected potent ability | effective | well tolerated | same rank order as seen in studies of LBS in rat brain | modest affinity | high binding capacity | – | – | – | – | – | – | – |
| CC[C@@H](C(N)=O)N1CC(c2cccc(N=[N+]=[N-])c2)CC1=O (stereo partly shown) [ucb 30889] | – | – | – | – | same rank order as seen in studies of LBS in rat brain | – | – | 79000 sites/cell | 0.05 µM | could not be detected | no binding above background | 0.042 µM | 0.0794 µM | – |
| CC[C@H](C(N)=O)N1CCCC1=O [ucb L060] | – | – | – | – | same rank order as seen in studies of LBS in rat brain | – | – | – | – | – | – | – | – | about 1000 times |

Reference: patent US7090985B2, “Methods for the identification of agents for the treatment of seizures, neurological diseases, endocrinopathies and hormonal diseases” (UCB, S.A., priority 2002, dated 2006)
